Patent US7429564B2, “Oral insulin therapy” (Emisphere Technologies, Inc., priority 2002, dated 2008)
Read-outs that look alike come from different tables or passages of the source. Marks after values point to notes of the source that are not given here.

Assays:
[1] = system: primary molecular targets; experiment: Receptor binding screening assays
Experimental: (§1) The present invention comprising compositions of insulin and the delivery agent 4-CNAB was evaluated for safety and toxicity in a nonclinical program that included pharmacological screening, pharmacokinetic profiling, and toxicity assessments in rats and monkeys.

[2] = system: rhesus monkeys; settings: rhesus monkey, in vivo, 14 days
Experimental: as §1

[3] = Example 5: 4-CNAB plasma pharmacokinetics, single oral doses, healthy male volunteers; format: in vivo, human; settings: for MRT inf: read-out: 4-CNAB MRT(0-inf); for Vd/F: read-out: 4-CNAB Vd/F
Experimental: A single center, double-blind, randomized placebo-controlled study undertaken in healthy human subjects in order to assess the safety and tolerability of escalating single oral doses of 4-CNAB capsules and insulin/4-CNAB capsules.
Within each treatment period in each group, eight subjects were planned to receive active treatment and two subjects to receive placebo. In Group 1, there were four escalating single doses of 4-CNAB (400, 800, 1400 and 2000 mg) and each subject received either all four of these escalating doses or three escalating single doses and one dose of placebo. […] In Group 3 there were three escalating oral doses of Insulin/4-CNAB (100 Units/300 mg, 100 Units/450 mg and 150 Units/100 mg) and one SC dose of 150 Units of insulin. Each subject received either all four of these treatments or three of these treatments and one placebo treatment. For all groups, there was a washout period of at least 72 hours between treatment periods.
The concentration of 4-CNAB in plasma was determined using a combination of liquid chromatography and Mass spectrometry assay known as LC-MS/MS. The method involves protein precipitation followed by separation on liquid chromatography using a Hypersil BDS column and a mobile phase consisting of methanol and acetate buffer. The eluting peaks were quantified by MS/MS. The equipment used for the determination of 4-CNAB in plasma comprises of an Agilent 1100 modular HPLC system with a Micromass Quattro Micro MS/MS detector. HPLC and AR grade chemicals and reagents were used throughout the study.
On the basis of plasma concentrations of 4-CNAB and insulin, PK analysis was performed using non-compartmental PK methods as implemented in WinNonlin™ Professional version 3.2. The profiles for insulin and C-peptide corrected insulin were evaluated up to 6 hours as food was given 6 hours following insulin treatment. The following parameters were derived for 4-CNAB: Cmax, tmax, AUC(0-t), AUC(0-inf), AUC% Extrap, Kel, t1/2, CL/F, Vd/F, MRT(0-t), MRT(0-inf) and Frel. The following parameters were derived for insulin and C-peptide corrected insulin: Cmax, tmax, AUC(0-2), AUC(0-6), AUC(0-t) and concentrations (C^b) and corresponding time (t^b) immediately prior to intervention for hypoglycemia.

[4] = male, human, plasma, oral, 400 mg, Group/Treatment 1/1, 4-CNAB dose 400, alone, unaudited data
[5] = male, human, plasma, oral, 800 mg, Group/Treatment 1/2, 4-CNAB dose 800, alone, unaudited data
[6] = male, human, plasma, oral, 1400 mg, Group/Treatment 1/3, 4-CNAB dose 1400, alone, unaudited data
[7] = male, human, plasma, oral, 2000 mg, Group/Treatment 1/4, 4-CNAB dose 2000, alone, unaudited data
[8] = male, human, plasma, oral, Group/Treatment 2/2, 4-CNAB dose 200, with insulin, unaudited data
[9] = male, human, plasma, oral, Group/Treatment 2/3, 4-CNAB dose 600, with insulin, unaudited data
[10] = male, human, plasma, oral, Group/Treatment 3/1, 4-CNAB dose 300, with insulin, unaudited data
[11] = male, human, plasma, oral, Group/Treatment 3/2, 4-CNAB dose 450, with insulin, unaudited data
[12] = male, human, plasma, oral, Group/Treatment 3/3, 4-CNAB dose 100, with insulin, unaudited data
[13] = male, human, plasma, po, 400 mg, 4-CNAB alone 400 mg oral
[14] = male, human, plasma, po, 800 mg, 4-CNAB alone 800 mg oral
[15] = male, human, plasma, po, 1400 mg, 4-CNAB alone 1400 mg oral

O=C(O)CCCNC(=O)c1ccc(Cl)cc1O [4-CNAB, 4-[(4-chloro, 2-hydroxybenzoyl)amino]butanoic acid]
Activity in receptor binding screening [1]: did not demonstrate potential activity in any of the primary molecular targets | Highest proposed human dose (2000 mg) fold lower than NOAEL in monkeys [2]: 12-16 fold | 4-CNAB Cl/F ([3]; 4-CNAB alone 400 mg oral): 294 ± 122 mL/min | 4-CNAB Kel ([3]; 4-CNAB alone 400 mg oral): 0.11 ± 0.78 h⁻¹ | 4-CNAB Cl/F ([3]; 4-CNAB alone 800 mg oral): 290 ± 88^b mL/min | 4-CNAB Kel ([3]; 4-CNAB alone 800 mg oral): 0.12 ± 0.04 h⁻¹ | 4-CNAB Cl/F ([3]; 4-CNAB alone 1400 mg oral): 160 ± 38 mL/min | 4-CNAB Kel ([3]; 4-CNAB alone 1400 mg oral): 0.18 ± 0.14 h⁻¹ | 4-CNAB Cl/F ([3]; 4-CNAB alone 2000 mg oral): 178 ± 32^a mL/min | 4-CNAB Kel ([3]; 4-CNAB alone 2000 mg oral): 0.06 ± 0.03 h⁻¹ | 4-CNAB median time of maximum concentration ([3]; 4-CNAB alone and combined Insulin/4-CNAB treatment): around 0.6 hours | AUC [3, 4]: 22400 ng·h/mL | Cmax [3, 4]: 22300 ng/mL | Tmax ([3]; male, human, plasma, oral, 400 mg, Group/Treatment 1/1, 4-CNAB dose 400, alone, unaudited data, read-out: 4-CNAB tmax (range)): 30 min | AUC [3, 5]: 42700 ng·h/mL | Cmax [3, 5]: 32700 ng/mL | Tmax ([3]; male, human, plasma, oral, 800 mg, Group/Treatment 1/2, 4-CNAB dose 800, alone, unaudited data, read-out: 4-CNAB tmax (range)): 30 min | AUC [3, 6]: 144000 ng·h/mL | Cmax [3, 6]: 97500 ng/mL | Tmax ([3]; male, human, plasma, oral, 1400 mg, Group/Treatment 1/3, 4-CNAB dose 1400, alone, unaudited data, read-out: 4-CNAB tmax (range)): 30 min | AUC [3, 7]: 213000 ng·h/mL | Cmax [3, 7]: 122000 ng/mL | Tmax ([3]; male, human, plasma, oral, 2000 mg, Group/Treatment 1/4, 4-CNAB dose 2000, alone, unaudited data, read-out: 4-CNAB tmax (range)): 45 min | half-life ([3]; male, human, plasma, oral, 4-CNAB alone, read-out: 4-CNAB mean elimination half-life, range across doses): 354 to 918 min | AUC [3, 8]: 10000 ng·h/mL | Cmax [3, 8]: 9160 ng/mL | Tmax ([3]; male, human, plasma, oral, Group/Treatment 2/2, 4-CNAB dose 200, with insulin, unaudited data, read-out: 4-CNAB tmax (range)): 30 min | AUC [3, 9]: 36700 ng·h/mL | Cmax [3, 9]: 33200 ng/mL | Tmax ([3]; male, human, plasma, oral, Group/Treatment 2/3, 4-CNAB dose 600, with insulin, unaudited data, read-out: 4-CNAB tmax (range)): 30 min | AUC [3, 10]: 8740 ng·h/mL | Cmax [3, 10]: 8660 ng/mL | Tmax ([3]; male, human, plasma, oral, Group/Treatment 3/1, 4-CNAB dose 300, with insulin, unaudited data, read-out: 4-CNAB tmax (range)): 30 min | AUC [3, 11]: 25900 ng·h/mL | Cmax [3, 11]: 20100 ng/mL | Tmax ([3]; male, human, plasma, oral, Group/Treatment 3/2, 4-CNAB dose 450, with insulin, unaudited data, read-out: 4-CNAB tmax (range)): 30 min | AUC [3, 12]: 4710 ng·h/mL | Cmax [3, 12]: 5170 ng/mL | Tmax ([3]; male, human, plasma, oral, Group/Treatment 3/3, 4-CNAB dose 100, with insulin, unaudited data, read-out: 4-CNAB tmax (range)): 15 min | MRT ([3]; male, human, plasma, oral, across treatments, read-out: 4-CNAB MRT, range): 84 to 108 min | half-life ([3]; male, human, plasma, oral, combination capsules with insulin, across dose groups, read-out: 4-CNAB mean elimination half-life): 192 to 318 min | AUC(0-inf) [3, 13]: 26700 ± 12200 ng·h/mL | AUC(0-t) [3, 13]: 22200 ± 6760 ng·h/mL | Cmax [3, 13]: 22300 ± 11500 ng/mL | MRT inf [3, 13]: 438 ± 693 min | Vd/F [3, 13]: 220 ± 130 L | half-life ([3]; male, human, plasma, po, 400 mg, 4-CNAB alone 400 mg oral, read-out: 4-CNAB t1/2 (converted)): 720 ± 804 min | Tmax ([3]; male, human, plasma, po, 400 mg, 4-CNAB alone 400 mg oral, read-out: 4-CNAB tmax, median (range)): 30 min | AUC(0-inf) [3, 14]: 49400 ± 15100 ng·h/mL | AUC(0-t) [3, 14]: 44300 ± 14500 ng·h/mL | Cmax [3, 14]: 38000 ± 15800 ng/mL | MRT inf [3, 14]: 156 ± 31.8 min | Vd/F [3, 14]: 156 ± 82 L | half-life ([3]; male, human, plasma, po, 800 mg, 4-CNAB alone 800 mg oral, read-out: 4-CNAB t1/2 (converted)): 354 ± 93 min | Tmax ([3]; male, human, plasma, po, 800 mg, 4-CNAB alone 800 mg oral, read-out: 4-CNAB tmax, median (range)): 30 min | AUC(0-inf) [3, 15]: 154000 ± 38100 ng·h/mL | AUC(0-t) [3, 15]: 144000 ± 33800 ng·h/mL | Cmax [3, 15]: 103000 ± 14600 ng/mL | MRT inf [3, 15]: 184 ± 103 min | Vd/F [3, 15]: 81 ± 50 L | half-life ([3]; male, human, plasma, po, 1400 mg, 4-CNAB alone 1400 mg oral, read-out: 4-CNAB t1/2 (converted)): 378 ± 246 min
